Key:
[1] = biological target: T1, RARα (Homo sapiens, UniProt P10276); test: co-transfection assay, agonist activity on RARα; type: cell-based; parameters: expressed in transfected cells; host or cells: CV-1 cells (African green monkey kidney); details: CV-1 cells; read-out: EC50 agonist potency, RARα
T1 sequence (P10276 1-462): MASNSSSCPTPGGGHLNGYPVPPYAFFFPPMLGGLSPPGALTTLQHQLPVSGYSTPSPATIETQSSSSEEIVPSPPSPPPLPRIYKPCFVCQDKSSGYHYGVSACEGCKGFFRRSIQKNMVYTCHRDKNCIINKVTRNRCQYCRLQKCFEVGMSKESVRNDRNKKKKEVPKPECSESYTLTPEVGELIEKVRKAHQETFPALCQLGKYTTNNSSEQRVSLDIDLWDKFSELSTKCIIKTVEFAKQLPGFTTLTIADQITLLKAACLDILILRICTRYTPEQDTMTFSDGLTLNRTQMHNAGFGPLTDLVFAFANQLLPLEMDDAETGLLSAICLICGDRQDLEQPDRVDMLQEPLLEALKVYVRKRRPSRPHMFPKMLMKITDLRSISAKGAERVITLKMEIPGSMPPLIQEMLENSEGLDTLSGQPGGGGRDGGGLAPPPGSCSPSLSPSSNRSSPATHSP
From the text: (§1) This assay is described in further detail in U.S. Pat. Nos. 4,981,784 and 5,071,773, the disclosures of which are incorporated herein by reference.
(§2) In the co-transfection assay, a cloned cDNA for an IR (e.g., human RARα:, RARβ, RXRγ) under the control of a constitutive promoter (e.g., the SV 40 promoter) is introduced by transfection (a procedure to induce cells to take up foreign genes) into a background cell substantially devoid of endogenous IRs. This introduced gene directs the recipient cells to make the IR protein of interest. A second gene is also introduced (co-transfected) into the same cells in conjunction with the IR gene. This second gene, comprising the cDNA for a reporter protein, such as firefly luciferase (LUC), is controlled by an appropriate hormone responsive promoter containing a hormone response element (HRE). This reporter plasmid functions as a reporter for the transcription-modulating activity of the target IR. Thus, the reporter acts as a surrogate for the products (mRNA then protein) normally expressed by a gene under control of the target receptor and its native hormone.
(§3) The co-transfection assay can detect small molecule agonists or antagonists of target IRs. Exposing the transfected cells to an agonist ligand compound increases reporter activity in the transfected cells. This activity can be conveniently measured, e.g., by increasing luciferase production, which reflects compound-dependent, IR-mediated increases in reporter transcription. To detect antagonists, the co-transfection assay is carried out in the presence of a constant concentration of an agonist to the target IR (e.g., all-trans retinoic acid for RARα) known to induce a defined reporter signal. Increasing concentrations of a suspected antagonist will decrease the reporter signal (e.g., luciferase production). The co-transfection assay is therefore useful to detect both agonists and antagonists of specific IRs. Furthermore, it determines not only whether a compound interacts with a particular IR, but whether this interaction mimics (agonizes) or blocks (antagonizes) the effects of the native regulatory molecules on target gene expression, as well as the specificity and strength of this interaction.
CV-1 cells (African green monkey kidney fibroblasts) were cultured in the presence of Dulbecco's Modified Eagle Medium (DMEM) supplemented with 10% charcoal resin-stripped fetal bovine serum then transferred to 96-well microtiter plates one day prior to transfection. […]

[2] = biological target: T2, RARγ (Homo sapiens, UniProt P13631); test: co-transfection assay, antagonist activity on RARγ; type: cell-based; parameters: expressed in transfected cells; host or cells: CV-1 cells (African green monkey kidney); details: CV-1 cells, in presence of known RAR agonist TTNPB; for IC50: read-out: IC50 antagonist potency, RARγ
T2 sequence (P13631 1-454): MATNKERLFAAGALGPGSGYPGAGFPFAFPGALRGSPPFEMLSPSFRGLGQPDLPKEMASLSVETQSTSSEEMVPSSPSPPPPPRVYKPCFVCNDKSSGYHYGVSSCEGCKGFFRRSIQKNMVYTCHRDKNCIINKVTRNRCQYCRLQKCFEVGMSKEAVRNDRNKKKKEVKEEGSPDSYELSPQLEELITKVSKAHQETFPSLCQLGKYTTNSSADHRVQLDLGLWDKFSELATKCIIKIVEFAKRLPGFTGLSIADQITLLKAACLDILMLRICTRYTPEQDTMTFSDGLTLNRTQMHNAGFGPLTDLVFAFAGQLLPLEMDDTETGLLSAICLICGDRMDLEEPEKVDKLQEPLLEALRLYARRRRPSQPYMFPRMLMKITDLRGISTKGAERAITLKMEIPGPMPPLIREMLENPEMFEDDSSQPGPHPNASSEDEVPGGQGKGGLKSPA
From the text: as §1, §2, §3
CV-1 cells (African green monkey kidney fibroblasts) were cultured in the presence of Dulbecco's Modified Eagle Medium (DMEM) supplemented with 10% charcoal resin-stripped fetal bovine serum then transferred to 96-well microtiter plates one day prior to transfection.
To determine RAR and/or RXR agonist activity of the compounds of the present invention, the CV-1 cells were transiently transfected by calcium phosphate coprecipitation according to the procedure of Berger et al., 41 J. Steroid Biochem. Mol. Biol., 733 (1992) with the following receptor expressing plasmids: pRShRARα: Giguere et al., 330 Nature, 624 (1987); pRShRARβ and pRShRARγ, Ishikawa et al., 4 Mol. Endocrin., 837 (1990); pRShRXRα, Mangelsdorf et al., 345 Nature, 224 (1990); and pRSmRXRβ and pRSmRXRγ, Mangelsdorf et al., 6 Genes & Devel., 329 (1992), the disclosures of which are herein incorporated by reference. Each of these receptor expressing plasmids was co-transfected at a concentration of 5 ng/well, along with a basal reporter plasmid at 100 ng/well, the internal control plasmid pRS-β-Gal at 50 ng/well and filler DNA, pGEM at 45 ng/well.
The basal reporter plasmid D-MTV-LUC (Hollenberg and Evans, 55 Cell, 899 (1988), the disclosure of which is herein incorporated by reference) containing two copies of the TRE-palindromic response element described in Umesono et al., 336 Nature, 262 (1988), the disclosure of which is herein incorporated by reference, was used in transfections for the RARs, and the reporter plasmid CRBPIIFKLUC, which contains an RXRE (retinoid X receptor response element, as described in Mangelsdorf et al., 66 Cell, 555 (1991), the disclosure of which is herein incorporated by reference), was used in transfections for the RXRs.

| SMILES | EC50 [1] [nM] | efficacy of antagonist, % of maximal inhibition, RARγ (in parentheses after IC50) [2] [%] | IC50 [2] [nM] |
| --- | --- | --- | --- |
| CCCCOc1c(C(C)(C)C)cc(/C(C)=C/C=C/C(C)=C/C(=O)O)cc1C(C)(C)C [Compound 7, 2E, 4E, 6E-[7-(3,5-Di-t-butyl-4-n-butoxyphenyl)-3-methyl]-octa-2,4,6-trienoic acid] | > 10000 | 91 | 2 |
| CCCOc1c(C(C)(C)C)cc(/C(C)=C/C=C/C(C)=C/C(=O)O)cc1C(C)(C)C [Compound 8, 2E, 4E, 6E-[7-(3,5-Di-t-butyl-4-n-propoxyphenyl)-3-methyl]-octa-2,4,6-trienoic acid] | > 10000 | 85 | 3 |
| CCCCCOc1c(C(C)(C)C)cc(/C(C)=C/C=C/C(C)=C/C(=O)O)cc1C(C)(C)C [Compound 9, 2E, 4E, 6E-[7-(3,5-Di-t-butyl-4-n-pentoxyphenyl)-3-methyl]-octa-2,4,6-trienoic acid] | > 10000 | 80 | 5 |
| C=C(c1ccccc1)c1cc(/C(C)=C/C=C/C(C)=C/C(=O)O)cc(C(C)(C)C)c1 [Compound 17, (2E,4E,6E)-7-[3-t-butyl-5-(1-phenyl-vinyl)-phenyl]-3-methyl-octa-2,4,6-trienoic acid] | > 10000 | 85 | 2 |

— patent publication US5998654A, “Retinoic acid receptor antagonist compounds and methods” (Ligand Pharmaceuticals Incorporated, priority 1997, dated 1999)
